Experimental data: PubChem BioAssay (NCI)
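These data come from cells grown in 96-well plates and exposed to compound for 48 hours at five concentrations. Abbreviation: GI50, concentration required for 50% inhibition of growth. TGI: total growth inhibition.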

What was measured:
Assay in all cases: NCI anticancer screen, dose series, 48 h
786-0 renal = tested on: 786-0 renal
A498 renal = tested on: A498 renal
A549 NSCLC = tested on: A549 NSCLC
ACHN renal = tested on: ACHN renal
BT-549 breast = tested on: BT-549 breast
CAKI-1 renal = tested on: CAKI-1 renal
CCRF-CEM leukemia = tested on: CCRF-CEM leukemia
COLO 205 colon = tested on: COLO 205 colon
DU-145 prostate = tested on: DU-145 prostate
EKVX NSCLC = tested on: EKVX NSCLC
HCC-2998 colon = tested on: HCC-2998 colon
HCT-116 colon = tested on: HCT-116 colon
HCT-15 colon = tested on: HCT-15 colon
HL-60(TB) leukemia = tested on: HL-60(TB) leukemia
HOP-62 NSCLC = tested on: HOP-62 NSCLC
HOP-92 NSCLC = tested on: HOP-92 NSCLC
HS 578T breast = tested on: HS 578T breast
HT29 colon = tested on: HT29 colon
IGROV1 ovarian = tested on: IGROV1 ovarian
K-562 leukemia = tested on: K-562 leukemia
KM12 colon = tested on: KM12 colon
LOX IMVI melanoma = tested on: LOX IMVI melanoma
MALME-3M melanoma = tested on: MALME-3M melanoma
MCF7 breast = tested on: MCF7 breast
MDA-MB-435 = tested on: MDA-MB-435
MOLT-4 leukemia = tested on: MOLT-4 leukemia
NCI-H226 lung = tested on: NCI-H226 lung
NCI-H23 lung = tested on: NCI-H23 lung
NCI-H460 lung = tested on: NCI-H460 lung
NCI-H522 lung = tested on: NCI-H522 lung
NCI/ADR-RES ovarian = tested on: NCI/ADR-RES ovarian
OVCAR-3 ovarian = tested on: OVCAR-3 ovarian
OVCAR-4 ovarian = tested on: OVCAR-4 ovarian
OVCAR-5 ovarian = tested on: OVCAR-5 ovarian
PC-3 prostate = tested on: PC-3 prostate
RPMI-8226 leukemia = tested on: RPMI-8226 leukemia
RXF 393 renal = tested on: RXF 393 renal
SF-268 CNS = tested on: SF-268 CNS
SF-295 CNS = tested on: SF-295 CNS
SF-539 CNS = tested on: SF-539 CNS
SK-MEL-2 melanoma = tested on: SK-MEL-2 melanoma
SK-MEL-28 melanoma = tested on: SK-MEL-28 melanoma
SK-MEL-5 melanoma = tested on: SK-MEL-5 melanoma
SK-OV-3 ovarian = tested on: SK-OV-3 ovarian
SNB-19 CNS = tested on: SNB-19 CNS
SNB-75 CNS = tested on: SNB-75 CNS
SR leukemia = tested on: SR leukemia
SW-620 colon = tested on: SW-620 colon
T-47D breast = tested on: T-47D breast
TK-10 renal = tested on: TK-10 renal
U251 CNS = tested on: U251 CNS
UACC-257 melanoma = tested on: UACC-257 melanoma
UACC-62 melanoma = tested on: UACC-62 melanoma
UO-31 renal = tested on: UO-31 renal
M14 melanoma = tested on: M14 melanoma
MDA-MB-231 breast = tested on: MDA-MB-231 breast
OVCAR-8 ovarian = tested on: OVCAR-8 ovarian
SN12C renal = tested on: SN12C renal

Structure (SMILES): O=C(O)c1cc(=O)cc(C(=O)O)o1
- GI50 (786-0 renal): > 100 µM
- TGI (786-0 renal): > 100 µM
- GI50 (A498 renal): > 100 µM
- TGI (A498 renal): > 100 µM
- GI50 (A549 NSCLC): > 100 µM
- TGI (A549 NSCLC): > 100 µM
- GI50 (ACHN renal): > 100 µM
- TGI (ACHN renal): > 100 µM
- GI50 (BT-549 breast): > 100 µM
- TGI (BT-549 breast): > 100 µM
- GI50 (CAKI-1 renal): > 100 µM
- TGI (CAKI-1 renal): > 100 µM
- GI50 (CCRF-CEM leukemia): > 100 µM
- TGI (CCRF-CEM leukemia): > 100 µM
- GI50 (COLO 205 colon): > 100 µM
- TGI (COLO 205 colon): > 100 µM
- GI50 (DU-145 prostate): > 100 µM
- TGI (DU-145 prostate): > 100 µM
- GI50 (EKVX NSCLC): > 100 µM
- TGI (EKVX NSCLC): > 100 µM
- GI50 (HCC-2998 colon): > 100 µM
- TGI (HCC-2998 colon): > 100 µM
- GI50 (HCT-116 colon): > 100 µM
- TGI (HCT-116 colon): > 100 µM
- GI50 (HCT-15 colon): > 100 µM
- TGI (HCT-15 colon): > 100 µM
- GI50 (HL-60(TB) leukemia): > 100 µM
- TGI (HL-60(TB) leukemia): > 100 µM
- GI50 (HOP-62 NSCLC): > 100 µM
- TGI (HOP-62 NSCLC): > 100 µM
- GI50 (HOP-92 NSCLC): > 100 µM
- TGI (HOP-92 NSCLC): > 100 µM
- GI50 (HS 578T breast): > 100 µM
- TGI (HS 578T breast): > 100 µM
- GI50 (HT29 colon): > 100 µM
- TGI (HT29 colon): > 100 µM
- GI50 (IGROV1 ovarian): > 100 µM
- TGI (IGROV1 ovarian): > 100 µM
- GI50 (K-562 leukemia): > 100 µM
- TGI (K-562 leukemia): > 100 µM
- GI50 (KM12 colon): > 100 µM
- TGI (KM12 colon): > 100 µM
- GI50 (LOX IMVI melanoma): > 100 µM
- TGI (LOX IMVI melanoma): > 100 µM
- GI50 (MALME-3M melanoma): > 100 µM
- TGI (MALME-3M melanoma): > 100 µM
- GI50 (MCF7 breast): > 100 µM
- TGI (MCF7 breast): > 100 µM
- GI50 (MDA-MB-435): > 100 µM
- TGI (MDA-MB-435): > 100 µM
- GI50 (MOLT-4 leukemia): > 100 µM
- TGI (MOLT-4 leukemia): > 100 µM
- GI50 (NCI-H226 lung): > 100 µM
- TGI (NCI-H226 lung): > 100 µM
- GI50 (NCI-H23 lung): > 100 µM
- TGI (NCI-H23 lung): > 100 µM
- GI50 (NCI-H460 lung): > 100 µM
- TGI (NCI-H460 lung): > 100 µM
- GI50 (NCI-H522 lung): > 100 µM
- TGI (NCI-H522 lung): > 100 µM
- GI50 (NCI/ADR-RES ovarian): > 100 µM
- TGI (NCI/ADR-RES ovarian): > 100 µM
- GI50 (OVCAR-3 ovarian): > 100 µM
- TGI (OVCAR-3 ovarian): > 100 µM
- GI50 (OVCAR-4 ovarian): > 100 µM
- TGI (OVCAR-4 ovarian): > 100 µM
- GI50 (OVCAR-5 ovarian): > 100 µM
- TGI (OVCAR-5 ovarian): > 100 µM
- GI50 (PC-3 prostate): > 100 µM
- TGI (PC-3 prostate): > 100 µM
- GI50 (RPMI-8226 leukemia): > 100 µM
- TGI (RPMI-8226 leukemia): > 100 µM
- GI50 (RXF 393 renal): > 100 µM
- TGI (RXF 393 renal): > 100 µM
- GI50 (SF-268 CNS): > 100 µM
- TGI (SF-268 CNS): > 100 µM
- GI50 (SF-295 CNS): > 100 µM
- TGI (SF-295 CNS): > 100 µM
- GI50 (SF-539 CNS): > 100 µM
- TGI (SF-539 CNS): > 100 µM
- GI50 (SK-MEL-2 melanoma): > 100 µM
- TGI (SK-MEL-2 melanoma): > 100 µM
- GI50 (SK-MEL-28 melanoma): > 100 µM
- TGI (SK-MEL-28 melanoma): > 100 µM
- GI50 (SK-MEL-5 melanoma): > 100 µM
- TGI (SK-MEL-5 melanoma): > 100 µM
- GI50 (SK-OV-3 ovarian): > 100 µM
- TGI (SK-OV-3 ovarian): > 100 µM
- GI50 (SNB-19 CNS): > 100 µM
- TGI (SNB-19 CNS): > 100 µM
- GI50 (SNB-75 CNS): > 100 µM
- TGI (SNB-75 CNS): > 100 µM
- GI50 (SR leukemia): > 100 µM
- TGI (SR leukemia): > 100 µM
- GI50 (SW-620 colon): > 100 µM
- TGI (SW-620 colon): > 100 µM
- GI50 (T-47D breast): > 100 µM
- TGI (T-47D breast): > 100 µM
- GI50 (TK-10 renal): > 100 µM
- TGI (TK-10 renal): > 100 µM
- GI50 (U251 CNS): > 100 µM
- TGI (U251 CNS): > 100 µM
- GI50 (UACC-257 melanoma): > 100 µM
- TGI (UACC-257 melanoma): > 100 µM
- GI50 (UACC-62 melanoma): > 100 µM
- TGI (UACC-62 melanoma): > 100 µM
- GI50 (UO-31 renal): > 100 µM
- TGI (UO-31 renal): > 100 µM

Structure (SMILES): O=C1C=CC(=C(c2ccccc2)c2ccc(O)cc2)C=C1
- TGI (786-0 renal): > 100 µM
- TGI (A549 NSCLC): 36.8 µM
- TGI (ACHN renal): 39.2 µM
- TGI (BT-549 breast): 18.7 µM
- TGI (CAKI-1 renal): 32.1 µM
- TGI (CCRF-CEM leukemia): > 100 µM
- TGI (COLO 205 colon): 49.7 µM
- TGI (DU-145 prostate): 53.6 µM
- TGI (EKVX NSCLC): 35.9 µM
- TGI (HCC-2998 colon): 63.9 µM
- TGI (HCT-116 colon): > 100 µM
- TGI (HCT-15 colon): 35.3 µM
- TGI (HL-60(TB) leukemia): 47.2 µM
- TGI (HOP-62 NSCLC): > 100 µM
- TGI (HOP-92 NSCLC): 36.1 µM
- TGI (HS 578T breast): 47.7 µM
- TGI (HT29 colon): 43.4 µM
- TGI (IGROV1 ovarian): 22.5 µM
- TGI (K-562 leukemia): 68.1 µM
- TGI (KM12 colon): 41.5 µM
- TGI (LOX IMVI melanoma): 17.9 µM
- TGI (M14 melanoma): 91.6 µM
- TGI (MALME-3M melanoma): 28.6 µM
- TGI (MCF7 breast): 37.1 µM
- TGI (MDA-MB-231 breast): 32.4 µM
- TGI (MDA-MB-435): 32.5 µM
- TGI (MOLT-4 leukemia): > 100 µM
- TGI (NCI-H226 lung): 38 µM
- TGI (NCI-H23 lung): 42.9 µM
- TGI (NCI-H460 lung): 41.7 µM
- TGI (NCI-H522 lung): 28.2 µM
- TGI (NCI/ADR-RES ovarian): > 100 µM
- TGI (OVCAR-3 ovarian): 32.5 µM
- TGI (OVCAR-4 ovarian): 30.2 µM
- TGI (OVCAR-5 ovarian): 49.7 µM
- TGI (OVCAR-8 ovarian): 44.1 µM
- TGI (PC-3 prostate): 47.5 µM
- TGI (RPMI-8226 leukemia): > 100 µM
- TGI (RXF 393 renal): 30.5 µM
- TGI (SF-268 CNS): 43.3 µM
- TGI (SF-295 CNS): 39.6 µM
- TGI (SF-539 CNS): 30.8 µM
- TGI (SK-MEL-2 melanoma): 32 µM
- TGI (SK-MEL-28 melanoma): 31.9 µM
- TGI (SK-MEL-5 melanoma): 26.4 µM
- TGI (SN12C renal): 29.7 µM
- TGI (SNB-19 CNS): 31.7 µM
- TGI (SNB-75 CNS): 38.2 µM
- TGI (SR leukemia): 40.8 µM
- TGI (SW-620 colon): 90.9 µM
- TGI (TK-10 renal): 37.4 µM
- TGI (U251 CNS): 29.2 µM
- TGI (UACC-257 melanoma): 31.7 µM
- TGI (UACC-62 melanoma): 28.9 µM
- TGI (UO-31 renal): 29.5 µM
